Reference: publication PMC5859971 (Genes & Development, 2018)
pIC50: −log10 of the molar value. “Also recorded” adds a separate entry of the source.

Columns and labels:
[1] = target: T1, PHF5A^Y36C mutant complex (Homo sapiens, UniProt O75533+Q7RTV0, Y36C); assay: MST compound binding to PHF5A^Y36C mutant complex; conditions: result in words
T1 construct: SF3B1 was limited to the HEAT repeat domain from residues 454–1304 and cloned in-frame with an N-terminal Flag tag; Truncated SF3B1 and full-length SF3B3, PHF5A, and SF3B5 were synthesized; Flag (N); made in house; host or cells: SF21 insect cells (inferred to be made as the wild-type complex)
Method: The four-protein complex composed of the HEAT repeats of SF3B1 (residues 454–1304) as well as full-length SF3B3, SF3B5, and PHF5A was coexpressed and purified from insect cells. This complex is necessary and sufficient for compound binding in a scintillation proximity assay (SPA) format ([Teng et al. 2017]).
The SF3b subcomplex was first titrated against a fixed concentration (25 nM) of fluorescent label (NTA-647) to determine the optimal concentrations of protein and label for the MST experiment. After 15 min of incubation at room temperature, samples were loaded into Monolith NT.115 capillaries, and MST analysis was performed using a Monolith NT.115Pico. […] For subsequent compound-binding experiments, the SF3b subcomplex bound to NTA-647 was fixed at 10 nM, and the compound was titrated from 50 µM to 3 pM. After 15 min of incubation, samples were loaded into capillaries, and analysis was performed as described previously.

HCT116-PHF5A^WT = assay: CellTiter-Glo viability assay, HCT116-PHF5A^WT; assay type: cell-based, human; conditions: Homo sapiens; 72 h, CellTiter-Glo; read-out: HCT116-PHF5A^WT GI50
Method: (§1) To further validate the pose of the compound, we analyzed the activity of several related chemical probes using the SPA with the purified protein complex ([Teng et al. 2017]). The SPA is formatted as a competition assay in which the purified protein complex is captured on a bead containing scintillant, incubated with test compounds over a dose response, and then competed off with a fixed concentration of ^3H-Plad compound. IC50 curves are then measured from the resulting light emitted from the bead (Table 1; Supplemental Fig. S4). In addition, we tested the probes in viability assays in two engineered cell lines: HCT116-PHF5A^WT and the sensitization line HCT116-PHF5A^R38C (Table 1; Supplemental Fig. S5). This facilitates profiling of chemical probe activity in the PHF5A background (wild type and mutant). The relative expression levels were further confirmed by Western blot analysis (Supplemental Fig. S5).
(§2) Parental HCT116 cells were obtained from American Type Culture Collection and cultured in RPMI 1640 medium supplemented with 10% fetal bovine serum. PHF5A R38C was generated using the Agilent QuikChange II kit and was cloned into pLenti6.3/V5 as described ([Teng et al. 2017]). The verified clone was used for lentivirus production using X293T cells. Parental HCT116 cells were infected with virus and selected with blasticidin S at 10 µg mL^−1 for 1 wk. Engineered cell lines were subsequently maintained in the absence of antibiotic. Transgene expression was confirmed by Western blot analysis (Supplemental Fig. S4). For Western blot analysis, α-PHF5A rabbit polyclonal antibody (Protein Tech, 15554-1-AP) was used at 1:1000 dilution in LI-COR buffer, and anti-rabbit secondary antibody (LI-COR) was used at 1:5000 dilution. The Western blot was imaged using an Odyssey V3.0 imager (LI-COR). For CellTiter-Glo analysis of the wild-type and PHF5A^R38C cell lines, 500 cells were seeded in each well of a 384-well plate 1 d before compound addition. Dose response was measured in 11-point serial dilutions with a top dose of 10 µM. The percentage of DMSO was controlled throughout, and a DMSO-only control was included. Seventy-two hours after dosing, CellTiter-Glo reagent was added, incubated, and assayed on an EnVision multilabel reader (PerkinElmer). Luminescence values from each treatment were normalized to the average value of the respective DMSO control. The dose response curve plots were generated in GraphPad Prism, and GI50 values were calculated from nonlinear regression analysis. GI50 values for the wild-type and R38C mutant cell lines were plotted in Spotfire.

HCT116-PHF5A^R38C = assay: CellTiter-Glo viability assay, HCT116-PHF5A^R38C; assay type: cell-based, human
Method: as §1, §2

[2] = test system: splicing of Ad2.1 pre-mRNA substrate; assay: In vitro splicing (IVS) assay, Ad2.1 substrate, HeLa S3 nuclear extracts, RT-qPCR; assay type: biochemical, human; conditions: Ad2.1 (strong) substrate
Text: A substrate competitive mechanism of action (MOA) would predict that weaker pre-mRNA substrates would be easier to inhibit than stronger substrates. To date, it has not been possible to evaluate substrate competition using traditional steady-state conditions because splicing reactions are thought to be single-turnover events in vitro, and therefore it is not possible to measure a KM for the pre-mRNA. […] Specifically, we engineered the strong in vitro splicing substrate Ad2.1 by enhancing the U2 snRNP base-pairing around the BPA found in the Ad2 substrate. We then engineered a weaker substrate, Ad2.2, by adding a decoy BPS lacking an extrahelical adenosine (Ad2.2) (Fig. 5A; Supplemental Vector NTI files; [Corrionero et al. 2011]). […] We then evaluated E7107 and several chemical probes to better understand their mechanism.
Figure 5. […] (A) Base-pairing logic for IVS substrates. (BPRS) Branch point recognition sequence in U2 snRNA; (BPS) the BPS in the pre-mRNA. The Ad2 gene BPS sequence (UACUUAU) was modified (UACUAAU) to strengthen the U2 base-pairing interactions flanking the BPA, leading to the Ad2.1 substrate (BPA in red). The Ad2.2 sequence has the same BPS as Ad2 but also contains a 5′ decoy BPS sequence (lacking an extrahelical adenine) that can base-pair with the BPRS. The decoy BPS and suboptimal BPS overlap, which gives U2 at least two possibilities for possible base pairing, as indicated. […] (B) RT-qPCR time-course data showing product formation over time. […] (C) Representative IC50 curves for compound 6 using the two different substrates (Ad2.1 and Ad2.2).
The Ad2-derived ([Pellizzoni et al. 1998]) sequence was cloned into the pGEM-3Z vector (Promega) using 5′ EcoRI and 3′ XbaI restriction sites. The Ad2 variant (Ad2.2) ([Seiler et al. 2018]) was cloned into pcDNA3.1(+) vector (Promega) using the same restriction sites. The plasmids were linearized using XbaI and used as DNA templates in the in vitro transcription reactions. The FtzΔi intron-less plasmid ([Luo and Reed 1999]) was linearized using EcoRI. All RNAs were in vitro transcribed and then purified using MegaScript T7 and MegaClear kits, respectively (Invitrogen). For splicing reactions used with the Ad2.2 substrate, […] reactions were prepared using 8 µg of nuclear extracts prepared from HeLa S3, a saturating excess of 2 ng of pre-mRNA substrate, 0.2 ng of FTZΔi, and varying concentrations of compounds or DMSO.

[3] = test system: SF3B1^R1074H and PHF5A^Y36 mutations; conditions: strongest levels of resistance; ref Yokoi et al. 2011; Teng et al. 2017; cited from earlier work

T1 sequence (Q15393 whole entry, the tested form may be a part): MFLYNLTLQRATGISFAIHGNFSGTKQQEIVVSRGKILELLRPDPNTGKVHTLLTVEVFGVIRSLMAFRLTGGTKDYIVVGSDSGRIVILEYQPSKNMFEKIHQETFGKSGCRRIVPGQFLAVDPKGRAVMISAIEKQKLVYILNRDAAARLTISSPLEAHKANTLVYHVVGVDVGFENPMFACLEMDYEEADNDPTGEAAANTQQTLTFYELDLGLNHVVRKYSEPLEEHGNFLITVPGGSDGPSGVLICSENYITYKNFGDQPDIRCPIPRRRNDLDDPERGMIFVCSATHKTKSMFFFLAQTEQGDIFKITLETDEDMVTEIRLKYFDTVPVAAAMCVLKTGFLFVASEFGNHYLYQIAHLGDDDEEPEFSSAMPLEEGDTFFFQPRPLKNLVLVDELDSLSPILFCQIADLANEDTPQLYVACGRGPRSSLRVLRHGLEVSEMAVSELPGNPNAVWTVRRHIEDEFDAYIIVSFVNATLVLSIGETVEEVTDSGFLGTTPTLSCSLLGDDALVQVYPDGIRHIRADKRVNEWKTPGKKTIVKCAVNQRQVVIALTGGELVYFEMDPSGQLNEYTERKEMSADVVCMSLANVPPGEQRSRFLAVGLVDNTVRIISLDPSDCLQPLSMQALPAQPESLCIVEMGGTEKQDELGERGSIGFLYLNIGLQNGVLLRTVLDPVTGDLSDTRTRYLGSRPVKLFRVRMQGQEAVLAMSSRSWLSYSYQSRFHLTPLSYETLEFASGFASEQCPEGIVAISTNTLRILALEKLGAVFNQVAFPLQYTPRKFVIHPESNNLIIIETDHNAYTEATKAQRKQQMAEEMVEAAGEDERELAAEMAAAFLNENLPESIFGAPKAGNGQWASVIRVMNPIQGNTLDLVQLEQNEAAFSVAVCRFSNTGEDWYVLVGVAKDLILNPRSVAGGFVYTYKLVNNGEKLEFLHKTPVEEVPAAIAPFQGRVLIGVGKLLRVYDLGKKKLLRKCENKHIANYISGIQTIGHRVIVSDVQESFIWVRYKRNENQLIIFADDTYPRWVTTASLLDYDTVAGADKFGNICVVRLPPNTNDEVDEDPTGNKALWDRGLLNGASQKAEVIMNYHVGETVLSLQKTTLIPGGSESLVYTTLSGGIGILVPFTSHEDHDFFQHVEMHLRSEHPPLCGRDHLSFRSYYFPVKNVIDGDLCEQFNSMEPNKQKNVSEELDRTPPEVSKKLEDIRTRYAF
T1 sequence (Q9BWJ5 whole entry, further chain, the tested form may be a part): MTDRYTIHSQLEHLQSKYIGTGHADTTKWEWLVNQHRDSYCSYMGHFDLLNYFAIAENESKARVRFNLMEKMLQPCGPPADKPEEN
T1 sequence (O75533 454-1304): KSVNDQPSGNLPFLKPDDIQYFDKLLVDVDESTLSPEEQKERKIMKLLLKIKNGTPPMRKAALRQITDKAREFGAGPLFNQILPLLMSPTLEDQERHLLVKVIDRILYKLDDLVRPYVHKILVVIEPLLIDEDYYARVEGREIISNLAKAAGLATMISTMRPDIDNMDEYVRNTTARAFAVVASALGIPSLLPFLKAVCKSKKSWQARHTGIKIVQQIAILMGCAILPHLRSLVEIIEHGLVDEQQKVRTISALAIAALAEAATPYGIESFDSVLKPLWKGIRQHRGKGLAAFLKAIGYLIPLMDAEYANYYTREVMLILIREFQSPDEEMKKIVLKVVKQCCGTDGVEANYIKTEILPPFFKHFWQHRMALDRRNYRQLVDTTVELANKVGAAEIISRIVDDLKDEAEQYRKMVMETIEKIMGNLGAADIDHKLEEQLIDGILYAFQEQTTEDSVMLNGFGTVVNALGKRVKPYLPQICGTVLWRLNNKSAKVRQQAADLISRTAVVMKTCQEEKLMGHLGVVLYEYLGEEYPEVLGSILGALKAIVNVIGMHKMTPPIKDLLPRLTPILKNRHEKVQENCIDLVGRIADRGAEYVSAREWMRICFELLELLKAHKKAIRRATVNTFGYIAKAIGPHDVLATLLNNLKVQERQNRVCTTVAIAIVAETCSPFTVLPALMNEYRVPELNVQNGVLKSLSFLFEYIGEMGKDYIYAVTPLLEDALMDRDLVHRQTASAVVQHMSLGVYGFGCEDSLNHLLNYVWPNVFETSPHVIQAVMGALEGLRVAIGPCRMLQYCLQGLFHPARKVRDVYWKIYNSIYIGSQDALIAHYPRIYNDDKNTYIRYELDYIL
T1 sequence (Q7RTV0 whole entry Y36C, the tested form may be a part): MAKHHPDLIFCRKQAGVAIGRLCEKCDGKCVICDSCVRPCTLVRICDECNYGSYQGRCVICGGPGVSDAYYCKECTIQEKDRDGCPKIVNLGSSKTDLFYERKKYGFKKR

CCC(O)C(C)C1OC1CC(C)(O)C=CC=C(C)C1OC(=O)CC(O)CCC(C)(O)C(OC(=O)N2CCN(C3CCCCCC3)CC2)C=CC1C (stereo not shown) [Compound E7107]
binding to PHF5A^Y36C mutant complex [1]: no binding was detected; also recorded: not able to bind | GI50 (HCT116-PHF5A^WT): 2.3 nM | sensitization (enhanced potency in PHF5A^R38C vs wild type) (HCT116-PHF5A^R38C; GI50 R38C vs wild type, n = 2): twofold | GI50 (HCT116-PHF5A^R38C; Homo sapiens, 72 h, CellTiter-Glo, read-out: HCT116-PHF5A^R38C GI50): 1.2 nM | PHF5A^R38C sensitization phenotype (words) (HCT116-PHF5A^R38C; R38C vs wild type): sensitization | pIC50 [2]: 8.04 | resistance conferred by SF3B1^R1074H and PHF5A^Y36C [3]: > 500 fold
